Assay results: the SangsterLogP compilation

Work on `CCCCC1(O)C(=O)N(C)c2ccccc2C1=CC(=O)O` (stereo not given) yielded a logP of 2.23. `CCCCC1(O)C(=O)N(c2ccccc2)c2ccccc2C1=CC(=O)O` (stereo not given) showed a logP of 2.44. With `CCOC(=O)C=C1c2ccccc2N(C)C(=O)C1(O)Cc1ccccc1` (stereo not given) the logP was 4.75. For `O=C(O)C=C1c2ccccc2N(c2ccccc2)C(=O)C1(O)c1ccccc1` (stereo not given), the logP was 2.83. `Cc1cc(C)c2c(c1)NC(=O)C2OC(=O)Cc1ccccc1` (stereo not given) gave a logP of 3.22. `CCCCC1(O)C(=O)Nc2ccccc2C1=CC(=O)O` (stereo not given) gave a logP of 2.18. `O=C(O)C=C1c2ccccc2NC(=O)C1(O)Cc1ccccc1` (stereo not given) gave a logP of 2.27. With `CCCCC1(O)C(=O)Nc2ccccc2C1=CC(=O)OCC` (stereo not given) the logP was 4.47. `CCCCC(=O)OC1C(=O)Nc2cc(C)cc(C)c21` (stereo not given) gave a logP of 3.19. `CN1C(=O)C(O)(Cc2ccccc2)C(=CC(=O)O)c2ccccc21` (stereo not given) gave a logP of 2.31. `O=C(O)C=C1c2ccccc2N(c2ccccc2)C(=O)C1(O)Cc1ccccc1` (stereo not given) gave a logP of 2.57. Compound `CCCCC1(O)C(=O)N(C)c2ccccc2C1=CC(=O)OCC` (stereo not given) has a logP of 4.21. Compound `CCCCC(=O)OC1C(=O)Nc2c(C)ccc(C)c21` (stereo not given) has a logP of 3.2. Compound `CCOC(=O)C=C1c2ccccc2NC(=O)C1(O)Cc1ccccc1` (stereo not given) has a logP of 4.16. Work on `Cc1ccc(Cl)c2c1NC(=O)C2OC(=O)Cc1ccccc1` (stereo not given) yielded a logP of 3.19.
